In this assay the test system is Plasmopara viticola. In words: Field application trial against downy mildew on vineyard (PESSEV / PESINC assessment on leaves and bunches). The note with it: between T2 (0.021 kg DM/ha) and T3 (0.21 kg DM/ha), both on leaves and bunches. The class given is in vivo. The protocol: The application trials were carried out in Piedmont, Italy. In these trials, three different dosage rates of three of the above-mentioned samples (SRCC1-0.5 DM, SRCC1-5 DM, SRCC1-25 DM) were applied against downy mildew on vineyard and the efficacy and selectivity thereof was evaluated. In addition, the performance in comparison to commercially available fungicides was also evaluated. […]
The efficacy against Plasmopara viticola and the selectivity on the crop of the test products SRCC1-0.5 DM and SRCC1-5 DM both applied in mixture with tribasic copper sulfate (Cupravit Bio Evoluion WG), respectively, in treatments T2 and T3, were evaluated. […]
The efficacy of SRCC1-25 DM was also evaluated in treatment T4 and compared with the reference F50 sprayed in treatment T6. […]
In this trial according to the present invention, the disease pressure was assessed through two standard parameters: • (i) PESSEV=the pest severity (i.e. the intensity) determined as infected area per bunch or leaf in %; and • (ii) PESINC=the pest incidence (i.e. the frequency) determined in % of bunches and leaves infected. […]

For the compound `COc1ccc(C(=CC(=O)N2CCOCC2)c2ccc(Cl)cc2)cc1OC` [dimethomorph], the “dosage rate effect of active ingredient” value is on record as “significant dosage rate effect”.

These data come from patent US10292383B2, “Use of surface-reacted calcium carbonate as carrier for agrochemical compounds” (Omya International AG, priority 2015, dated 2019).
